This note sets out measurements from paper PMC7811009, “Oxytocin modulates local topography of human functional connectome in healthy men at rest” (Communications Biology, 2021).

Data set [1] in a line: Plasma oxytocin concentration by radioimmunoassay after 40 IU intranasal (spray or nebuliser) or 10 IU intravenous oxytocin. It counts as in vivo, human. Particulars: for level at 0.95 h: male, human, 57 minutes post-administration (from last treatment offset), read-out: Concentration of plasmatic oxytocin. The text has this:
We employed a double-blind, placebo-controlled, triple-dummy, crossover design. Participants visited our centre for 4 experimental sessions spaced 8.90 days apart on average (SD = 5.65, range: 5–28 days). In each session, participants received treatment via all three administration routes, in one of two fixed sequences: either nebuliser/intravenous infusion/standard nasal spray, or standard nasal spray/intravenous infusion/nebuliser, according to the treatment administration scheme presented in Fig. 8 (upper panel). In three out of four sessions only one route of administration contained the active drug; in the fourth session, all routes delivered placebo or saline. Participants were randomly allocated to a treatment order (i.e. a specific plan regarding which route delivered the active drug in each experimental session) that was determined using a Latin square design. Unbeknown to the participants, the first treatment administration method in each session always contained placebo (see Fig. 8, upper panel), while intranasal (spray or nebuliser) oxytocin was only delivered with the third treatment administration. This protocol maintained double-blinding while avoiding the potential washing-out of intranasally deposited oxytocin (as might have been the case if oxytocin had been administered at the first treatment administration point and placebo at the third administration point). All sessions were conducted during the morning to minimise potential circadian variability in resting brain activity[79] or oxytocin levels.
For the intranasal administrations, participants self-administered a nominal dose of 40 IU oxytocin (Syntocinon; 40 IU/ml; Novartis, Basel, Switzerland), one of the highest clinically applicable doses[81] that would insure that lack of effects on the brain are unlikely to result from under-dosing. We have shown that 40 IU delivered with a standard nasal spray induce robust rCBF changes in two different cohorts of healthy men using between-[12] and within-subjects[11] designs. Work from others have also reported this dose to modulate resting functional connectivity[19],[82]. For the intranasal administration, we used specially manufactured placebo that contained the same excipients as Syntocinon except for oxytocin. Participants self-administered intranasal oxytocin or placebo with the nasal spray or nebuliser following under the supervision of the lead experimenter who ensured the correct application of the devices. Additionally, all participants had been trained during the screening visit in the correct administration procedures.
Participants followed our standard in-house protocol that we have used consistently across all of our studies and is consistent with the guidelines outlined by Guastella et al. (2013)[83]. […] Participants blocked opposite nostril while administering each puff, and each puff was followed by an immediate, brief, sharp, snort.
Participants self-administered 40 IU oxytocin (Syntocinon) or placebo, by operating the SINUS nebulizer for 3 min in each nostril (6 min in total), according to instructions. The correct application of the device was confirmed by determining gravimetrically the administered volume. Participants were instructed to breathe using only their mouth and to keep a constant breathing rate with their soft palate closed, to minimize delivery to the lungs. Previous studies using this nebuliser[34] have shown up to 9.0% (±1.9%) of the total administered dose to be delivered to the olfactory region, 15.7% (±2.4%) to the upper nose.
For the intravenous administration, we delivered 10 IU oxytocin (Syntocinon injection formulation, 10 IU/ml, Alliance, UK) or saline via slow infusion over 10 min (1IU/min). A 50-ml syringe was loaded with either 32 ml of 0.9% sodium chloride (placebo) or 30 ml of 0.9% sodium chloride with […] of Syntocinon (10 IU/ml). […]

The test system of data set [2] is human functional connectome at rest. As to the kind of experiment: Resting-state BOLD-fMRI, graph theory: nodal local efficiency (mesoscale); same doses, time and cohort. It is filed as in vivo. Particulars: post-hoc paired t-tests, FDR. As for the experimental part:
Each experimental session began with the treatment administration protocol that lasted about 22 min in total (Fig. 8, lower panel). After drug administration, participants were guided to the MRI scanner, where eight pulsed continuous arterial spin labelling scans (each lasting approx. eight minutes) were acquired, spanning 15–104 min post-dosing (data reported elsewhere[11]). The 8-min resting state BOLD-fMRI scan reported herein was obtained at about 57 ± 3.38 min post-dosing. Participants were instructed to lie still and maintain their gaze on a centrally placed fixation cross during scanning. We assessed participants’ levels of alertness (anchors: alert-drowsy) and excitement (anchors: excited-calm) using visual analogue scales (0–100) at three different time-points during the scanning session to evaluate subjective drug effects across time (data reported elsewhere[11]).
We used the CONN functional connectivity toolbox[97] to generate brain-wide functional connectivity matrices for each subject/session. […] The default atlas of the CONN toolbox includes 132 non-overlapping ROIs spanning cortical and subcortical areas and the cerebellum using a combination of the cortical and subcortical areas from the FSL Harvard-Oxford atlas and of the cerebellar areas of the Automatic Anatomical Labelling atlas (Supplementary data 1 for a detailed description). […] Finally, we normalized our correlation measures to z-scores using the Fisher’s r-z transform per subject/session.
We then used our z-transformed connectivity matrices to construct brain graphs representing a functional connectivity network for each subject/session. We used an undirected signed weighted approach in which we kept information about the sign and weight of each of the connections between the nodes (ROIs) of our network, without making assumptions about the direction of this relationship. […]
For each of the graph metrics analysed, we summarized the different values over the range of thresholds using the area under the curve (AUC), instead of applying multiple testing for each metric/threshold. […]

Like-named read-outs stand apart in the source and are kept apart here.

Turning to `CC[C@H](C)[C@@H]1NC(=O)[C@H](Cc2ccc(O)cc2)NC(=O)[C@@H](N)CSSC[C@@H](C(=O)N2CCC[C@H]2C(=O)N[C@@H](CC(C)C)C(=O)NCC(N)=O)NC(=O)[C@H](CC(N)=O)NC(=O)[C@H](CCC(N)=O)NC1=O` [oxytocin], the “Plasmatic oxytocin concentrations at post-administration, intravenous versus other conditions” value in data set [1] (57 min post-administration, all pTukey < 0.010) is reported as “higher in the intravenous condition than in all the other three treatment conditions”. For the same molecule, the “Plasma oxytocin concentrations, spray versus nebuliser” value in data set [1] (57 min post-administration, pTukey = 1.000) was “did not differ”. For the same molecule, the “Plasma oxytocin concentration at 57 min post-administration compared to baseline” value in data set [1] (Intranasal (spray, nebuliser) and intravenous administrations, all pTukey < 0.010) was “increased plasma oxytocin concentration”. In data set [1] (Nebuliser (40 IU intranasal, PARI SINUS nebuliser), 57 minutes post-administration, plasma, radioimmunoassay after extraction, mean, n = 16 healthy men), the “Concentration of plasmatic oxytocin” value amounted to 7.207 pg/mL. Further, the level at 0.95 h in data set [1] (inhaled or intranasal, Spray (40 IU intranasal, standard nasal spray), plasma, radioimmunoassay after extraction, mean, n = 16 healthy men) is 7.03 pg/mL; in data set [1] (Intravenous (10 IU infusion over 10 min, 1IU/min), plasma, radioimmunoassay after extraction, mean, n = 16 healthy men), 16.4 pg/mL. Moreover, the “Nodes with increased local efficiency compared to placebo” value is “increased the local efficiency of the right superior frontal gyrus, right frontal pole, anterior cingulate, left cuneal cortex, right posterior supramarginal gyrus and the brainstem” in data set [2] (intravenous, 10 IU); “increased the local efficiency of the right cuneal cortex and the left posterior supramarginal gyrus” in data set [2] (nebuliser, 40 IU intranasal); “increased the local efficiency of the right superior frontal gyrus, right anterior and posterior medial temporal gyri, right posterior superior temporal gyrus, right cuneal cortex and left cerebellum (area 1)” in data set [2] (spray, 40 IU intranasal).
